PubChem BioAssay (NCI)
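Step 1: Grow cells in 96-well plates. Step 2: Expose to compound for 48 hours at 5 concentrations. Step 3: Interpolate endpoints linearly; if unreached, use highest concentration. Abbreviation: GI50, concentration required for 50% inhibition of growth. TGI: concentration producing complete growth inhibition.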

Tests used:
Experiment in all cases: growth of human tumour cells (NCI), 48 h
NCI/ADR-RES ovarian = tested on: NCI/ADR-RES ovarian
CCRF-CEM leukemia = tested on: CCRF-CEM leukemia
MCF7 breast = tested on: MCF7 breast
HT29 colon = tested on: HT29 colon
BT-549 breast = tested on: BT-549 breast
SK-MEL-2 melanoma = tested on: SK-MEL-2 melanoma
CAKI-1 renal = tested on: CAKI-1 renal
HCT-116 colon = tested on: HCT-116 colon
SK-MEL-5 melanoma = tested on: SK-MEL-5 melanoma
RPMI-8226 leukemia = tested on: RPMI-8226 leukemia

Structure (SMILES)	TGI (NCI/ADR-RES ovarian)	TGI (CCRF-CEM leukemia)	TGI (MCF7 breast)	TGI (HT29 colon)	TGI (BT-549 breast)	TGI (SK-MEL-2 melanoma)	TGI (CAKI-1 renal)	TGI (HCT-116 colon)	TGI (SK-MEL-5 melanoma)	TGI (RPMI-8226 leukemia)	GI50 (NCI/ADR-RES ovarian)	GI50 (CCRF-CEM leukemia)	GI50 (MCF7 breast)	GI50 (HT29 colon)	GI50 (BT-549 breast)	GI50 (SK-MEL-2 melanoma)	GI50 (CAKI-1 renal)	GI50 (SK-MEL-5 melanoma)	GI50 (RPMI-8226 leukemia)
c1ccc2c(c1)CCc1[nH]c3c(c1-2)-c1ccccc1CC3	> 100 µM	> 100 µM	> 100 µM	> 100 µM	> 100 µM	> 100 µM	> 100 µM	> 100 µM	> 100 µM	> 100 µM									
CCN(CC)Cc1c(/C=C\c2cc(OC)c(OC)c(OC)c2)ccc(OC)c1O	6.29 µM	> 100 µM	99.4 µM	9.48 µM	> 82.2 µM	> 37.1 µM	> 100 µM	42.7 µM	> 83.7 µM	> 100 µM									
O=C1CC(=O)NC(=NNS(=O)(=O)c2ccccc2)N1	> 100 µM	> 100 µM	> 100 µM	> 100 µM	> 100 µM	> 100 µM	> 100 µM	> 100 µM	> 100 µM	> 100 µM									
CC(OC(=O)C(CC(=O)OC(C)(C)C)NC(=O)OC(C)(C)C)C(=O)OCc1ccccc1 (stereo not given)	> 100 µM	> 100 µM	> 100 µM	> 100 µM	> 100 µM	> 100 µM	> 100 µM	> 100 µM		> 100 µM									
Cc1ccc2nc(C=Nc3ccc(Cl)cc3)cc(C)c2c1	32.1 µM	13.1 µM	83.7 µM	37.8 µM	30 µM	> 100 µM	> 76.7 µM	14.3 µM	25.2 µM	> 51.3 µM									
FC(F)(Sc1ncc[nH]1)c1nc2ccccc2o1	> 100 µM	> 100 µM	> 100 µM	> 100 µM	> 100 µM	> 100 µM	> 100 µM	> 100 µM	> 100 µM	> 100 µM									
O=C1C=CC(=O)c2c1ccc1c3ccccc3n(Cc3cccc([N+](=O)[O-])c3)c21	> 90.3 µM	23 µM	65.6 µM	> 73.1 µM	> 69.7 µM	> 100 µM	31 µM	> 62.7 µM	> 100 µM	> 55.8 µM									
COC(=O)/C=C/C1(O)C=CC(=O)C=C1	> 68.2 µM	10.7 µM	13.2 µM		22.9 µM	19.1 µM	4.46 µM	3.73 µM	17.6 µM	> 100 µM									
Cc1nnc(N)nc1/C=C/c1c(O)ccc2ccccc12	> 100 µM	> 100 µM	> 100 µM	87.7 µM	> 100 µM	35.5 µM	> 100 µM	> 100 µM	94.4 µM	> 100 µM									
C[N+](C)(C)CC(=O)N/N=C/c1ccncc1	> 100 µM	> 100 µM	> 100 µM	> 100 µM	> 100 µM	> 100 µM	> 100 µM	> 100 µM	> 100 µM	> 100 µM									
OCCOc1ccccc2cccc1-2	> 100 µM	> 100 µM	> 100 µM	> 100 µM	> 100 µM	> 100 µM	> 100 µM	> 100 µM	> 100 µM	> 100 µM									
c1ccc2c(c1)NC1(N3CCCCC3)CCCCC21 (stereo not given)	> 100 µM	> 100 µM	> 100 µM	> 100 µM	> 100 µM	> 100 µM	> 100 µM	> 100 µM	> 100 µM	> 100 µM									
CN1CCN(Cc2ccc(NC(=O)c3cccc(C#Cc4cnc(N)c5ncccc45)c3F)cc2C(F)(F)F)CC1	5.18 µM	3.67 µM	1.72 µM	1.53 µM	11 µM	1.94 µM	6.34 µM		12.1 µM	13.2 µM	1600 nM	1010 nM	793 nM	677 nM	3.1 µM	522 nM	530 nM	4.3 µM	2280 nM
CCOc1cc2oc(C)cc(=O)c2c(OC)c1C=Nc1ccc(Cn2c(C)nc3ccccc32)cc1	> 100 µM	> 100 µM	> 100 µM	> 100 µM	> 100 µM	> 100 µM	> 100 µM	> 100 µM	> 100 µM	> 100 µM									
CSC12c3cc(C)n(-c4ccccc4)c3CC(C)(C)CN1C(=O)C2Oc1ccccc1 (stereo not given)	> 100 µM	> 100 µM	> 100 µM		> 100 µM	> 100 µM	> 100 µM	> 100 µM	> 100 µM	> 100 µM									
O=c1cn[nH]c(=S)n1/N=C/c1c[nH]c2ccccc12	> 100 µM	30.3 µM	> 100 µM	> 100 µM	> 100 µM	> 100 µM	> 100 µM	> 100 µM	> 100 µM	> 100 µM									
CCOC1Oc2ccccc2-c2nc(SC)ncc21 (stereo not given)	> 100 µM	> 100 µM	> 100 µM	> 100 µM	> 100 µM	> 100 µM	> 100 µM	> 100 µM	> 100 µM	> 100 µM									
